Assay results reported in PubChem BioAssay AID2060512 (Molecular Pharmacology Branch, DTP, NCI, 2025).

Tested on: 186277-243-T-J2-PDC complex spheroid viability
Test: Anticancer human tumor 186277-243-T-J2-PDC patient-derived colon adenocarcinoma cell line growth inhibition [GQUAD]
Conditions: for IC50: curve of first compound; for viability, T/C: stronger effect = lower value
In short: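 Tumor cells were grown as complex spheroids with HUVEC endothelial cells and mesenchymal stem cells as stroma. G-quadruplex stabilizers were combined with targeted agents over half-log dilutions from near the clinical Cmax, or from 10 microM.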

[1] = second compound 0.0316 µM, first compound 0.0316 µM
[2] = second compound 0.0316 µM, first compound 0.1 µM
[3] = second compound 0.0316 µM, first compound 0.316 µM
[4] = second compound 0.0316 µM, first compound 1 µM
[5] = second compound 0.0316 µM, first compound 3.16 µM
[6] = second compound 0.0316 µM, first compound 10 µM
[7] = second compound 0.1 µM, first compound 0.0316 µM
[8] = second compound 0.1 µM, first compound 0.1 µM
[9] = second compound 0.1 µM, first compound 0.316 µM
[10] = second compound 0.1 µM, first compound 1 µM
[11] = second compound 0.1 µM, first compound 3.16 µM
[12] = second compound 0.1 µM, first compound 10 µM
[13] = second compound 0.316 µM, first compound 0.0316 µM
[14] = second compound 0.316 µM, first compound 0.1 µM
[15] = second compound 0.316 µM, first compound 0.316 µM
[16] = second compound 0.316 µM, first compound 1 µM
[17] = second compound 0.316 µM, first compound 3.16 µM
[18] = second compound 0.316 µM, first compound 10 µM
[19] = second compound 1 µM, first compound 0.0316 µM
[20] = second compound 1 µM, first compound 0.1 µM
[21] = second compound 1 µM, first compound 0.316 µM
[22] = second compound 1 µM, first compound 1 µM
[23] = second compound 1 µM, first compound 3.16 µM
[24] = second compound 1 µM, first compound 10 µM
[25] = second compound 3.16 µM, first compound 0.0316 µM
[26] = second compound 3.16 µM, first compound 0.1 µM
[27] = second compound 3.16 µM, first compound 0.316 µM
[28] = second compound 3.16 µM, first compound 1 µM
[29] = second compound 3.16 µM, first compound 3.16 µM
[30] = second compound 3.16 µM, first compound 10 µM
[31] = second compound 10 µM, first compound 0.0316 µM
[32] = second compound 10 µM, first compound 0.1 µM
[33] = second compound 10 µM, first compound 0.316 µM
[34] = second compound 10 µM, first compound 1 µM
[35] = second compound 10 µM, first compound 3.16 µM
[36] = second compound 10 µM, first compound 10 µM
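Note: spheroids exposed to drugs for 7 days.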
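Throughout, for viability, T/C: 100% = DMSO vehicle control viability.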

Question: Which results are given for `C=CC(=O)N1CCN(c2nc(=O)n(-c3c(C)ccnc3C(C)C)c3nc(-c4c(O)cccc4F)c(F)cc23)C(C)C1` (stereo unspecified) + CN(C)c1ccc(Nc2c3ccc(NC(=O)CCN4CCCC4)cc3nc3cc(NC(=O)CCN4CCCC4)ccc23)cc1?
Answer: IC50 (second compound 0.0316 µM): > 10 µM; IC50 (second compound 0.1 µM): > 10 µM; IC50 (second compound 0.316 µM): > 10 µM; IC50 (second compound 1 µM): > 10 µM; IC50 (second compound 3.16 µM): > 10 µM; IC50 (second compound 10 µM): > 10 µM; viability, T/C [1]: 105%; viability, T/C [2]: 85.5%; viability, T/C [3]: 90.1%; viability, T/C [4]: 81.7%; viability, T/C [5]: 104%; viability, T/C [6]: 96.6%; viability, T/C [7]: 111%; viability, T/C [8]: 96.1%; viability, T/C [9]: 101%; viability, T/C [10]: 71.9%; viability, T/C [11]: 111%; viability, T/C [12]: 88.3%; viability, T/C [13]: 104%; viability, T/C [14]: 94.6%; viability, T/C [15]: 87.3%; viability, T/C [16]: 90.5%; viability, T/C [17]: 92.6%; viability, T/C [18]: 95.2%; viability, T/C [19]: 93.9%; viability, T/C [20]: 89.8%; viability, T/C [21]: 88.4%; viability, T/C [22]: 101%; viability, T/C [23]: 105%; viability, T/C [24]: 97.3%; viability, T/C [25]: 95.3%; viability, T/C [26]: 87.2%; viability, T/C [27]: 97.6%; viability, T/C [28]: 89.8%; viability, T/C [29]: 101%; viability, T/C [30]: 95.3%; viability, T/C [31]: 91.7%; viability, T/C [32]: 80.2%; viability, T/C [33]: 98.4%; viability, T/C [34]: 96%; viability, T/C [35]: 111%; viability, T/C [36]: 88.1%

Question: What does the source list for `CC(C)n1c(=O)n(C)c2cnc3cc(F)c(-c4ccc(OCCCN5CCCCC5)nc4)cc3c21` + Cc1cnc(CNC(=O)c2c(=O)c3ccc(N4CCCN(C)CC4)nc3n3c2sc2ccccc23)cn1?
Answer: IC50 (second compound 0.0316 µM): > 10 µM; IC50 (second compound 0.1 µM): > 10 µM; IC50 (second compound 0.316 µM): 3.6 µM; IC50 (second compound 1 µM): 0.144 µM; IC50 (second compound 3.16 µM): < 0.0316 µM; IC50 (second compound 10 µM): < 0.0316 µM; viability, T/C [1]: 90.6%; viability, T/C [2]: 79.9%; viability, T/C [3]: 73.5%; viability, T/C [4]: 69.3%; viability, T/C [5]: 75%; viability, T/C [6]: 76.2%; viability, T/C [7]: 70.4%; viability, T/C [8]: 54.4%; viability, T/C [9]: 70.6%; viability, T/C [10]: 73.1%; viability, T/C [11]: 59.4%; viability, T/C [12]: 46.5%; viability, T/C [13]: 67.8%; viability, T/C [14]: 67.6%; viability, T/C [15]: 48.8%; viability, T/C [16]: 70.8%; viability, T/C [17]: 46.5%; viability, T/C [18]: 41.2%; viability, T/C [19]: 49.2%; viability, T/C [20]: 46.3%; viability, T/C [21]: 52.2%; viability, T/C [22]: 54.8%; viability, T/C [23]: 52.3%; viability, T/C [24]: 42.5%; viability, T/C [25]: 43.7%; viability, T/C [26]: 39.8%; viability, T/C [27]: 49.5%; viability, T/C [28]: 39.7%; viability, T/C [29]: 40.6%; viability, T/C [30]: 36.4%; viability, T/C [31]: 31.8%; viability, T/C [32]: 47.5%; viability, T/C [33]: 40%; viability, T/C [34]: 39.7%; viability, T/C [35]: 38.3%; viability, T/C [36]: 35.6%

Question: `CCCS(=O)(=O)Nc1ccc(F)c(C(=O)c2c[nH]c3ncc(-c4ccc(Cl)cc4)cc23)c1F` + Cc1cnc(CNC(=O)c2c(=O)c3ccc(N4CCCN(C)CC4)nc3n3c2sc2ccccc23)cn1 was tested. Which IC50 (second compound 0.0316 µM) did it give?
Answer: Its IC50 is 6.12 µM.

Question: And the IC50 (second compound 0.1 µM)?
Answer: Its IC50 is 4.93 µM.

Question: What about the IC50 (second compound 0.316 µM) of the same compound?
Answer: Its IC50 is 4.41 µM.

Question: And the IC50 (second compound 1 µM)?
Answer: The IC50 was < 0.0316 µM.

Question: What about the IC50 (second compound 3.16 µM) of the same compound?
Answer: Its IC50 is < 0.0316 µM.

Question: What about the IC50 (second compound 10 µM) of the same compound?
Answer: Its IC50 is < 0.0316 µM.

Question: What about the viability, T/C [1] of the same compound?
Answer: The viability, T/C was 113%.

Question: And the viability, T/C [2]?
Answer: The viability, T/C was 102%.

Question: And the viability, T/C [3]?
Answer: The viability, T/C was 116%.

Question: What about the viability, T/C [4] of the same compound?
Answer: Its viability, T/C is 95.4%.

Question: What about the viability, T/C [5] of the same compound?
Answer: The viability, T/C was 88.3%.

Question: What about the viability, T/C [6] of the same compound?
Answer: The viability, T/C was 23.4%.

Question: What about the viability, T/C [7] of the same compound?
Answer: Its viability, T/C is 79.3%.

Question: What about the viability, T/C [8] of the same compound?
Answer: The viability, T/C was 72.4%.

Question: And the viability, T/C [9]?
Answer: Its viability, T/C is 93.1%.

Question: What about the viability, T/C [10] of the same compound?
Answer: Its viability, T/C is 74.1%.

Question: What about the viability, T/C [11] of the same compound?
Answer: Its viability, T/C is 72.3%.

Question: And the viability, T/C [12]?
Answer: The viability, T/C was 14.5%.

Question: And the viability, T/C [13]?
Answer: The viability, T/C was 63.6%.

Question: And the viability, T/C [14]?
Answer: Its viability, T/C is 62.3%.

Question: And the viability, T/C [15]?
Answer: Its viability, T/C is 68.5%.

Question: What about the viability, T/C [16] of the same compound?
Answer: Its viability, T/C is 59%.

Question: And the viability, T/C [17]?
Answer: The viability, T/C was 65.7%.

Question: What about the viability, T/C [18] of the same compound?
Answer: Its viability, T/C is 16.1%.

Question: What about the viability, T/C [19] of the same compound?
Answer: Its viability, T/C is 47.7%.

Question: And the viability, T/C [20]?
Answer: Its viability, T/C is 47%.

Question: And the viability, T/C [21]?
Answer: Its viability, T/C is 54.8%.

Question: And the viability, T/C [22]?
Answer: Its viability, T/C is 49.3%.

Question: What about the viability, T/C [23] of the same compound?
Answer: Its viability, T/C is 47.5%.

Question: What about the viability, T/C [24] of the same compound?
Answer: The viability, T/C was 15.8%.

Question: What about the viability, T/C [25] of the same compound?
Answer: The viability, T/C was 31.3%.

Question: And the viability, T/C [26]?
Answer: Its viability, T/C is 43.9%.

Question: And the viability, T/C [27]?
Answer: Its viability, T/C is 48.8%.

Question: What about the viability, T/C [28] of the same compound?
Answer: The viability, T/C was 41%.

Question: And the viability, T/C [29]?
Answer: The viability, T/C was 38.3%.

Question: What about the viability, T/C [30] of the same compound?
Answer: The viability, T/C was 9.83%.

Question: And the viability, T/C [31]?
Answer: The viability, T/C was 47.6%.

Question: And the viability, T/C [32]?
Answer: The viability, T/C was 36.8%.

Question: And the viability, T/C [33]?
Answer: The viability, T/C was 37.3%.

Question: What about the viability, T/C [34] of the same compound?
Answer: The viability, T/C was 40.4%.

Question: And the viability, T/C [35]?
Answer: Its viability, T/C is 37.8%.

Question: And the viability, T/C [36]?
Answer: The viability, T/C was 0.36%.
